Measurements as given in US10907168B2, “Jasmonic acid pathway activator” (MEDICAGO INC., priority 2015, dated 2021).
Entries after “also recorded” stand apart in the source; their conditions may differ.

Legend:
A. tumefaciens VirB1 = assay: Real-time RT PCR of VirB1 transcripts in agroinfiltrated leaves; assay type: in vivo, Agrobacterium tumefaciens; conditions: 1 mM, seven days post-treatment, Student's t-test P<0.05
Description: (§1) mRNA transcripts for C5-1 and A. tumefaciens virulence proteins VirB1 and VirE1 were assayed by real-time RT PCR using an ABI PRISM 7500 Fast real-time PCR apparatus, system version 2.0.1 (Applied Biosystems, Carlsbad Calif., U.S.A.). Total RNA was extracted from two 1-cm^2 leaf discs collected on the third main stem leaf (Robert et al., 2013) using the Qiagen RNeasy plant mini kit (Qiagen), following the supplier's instructions. RNA samples were treated with DNase I (Roche Diagnostics) to remove contaminant DNA and assessed for quality and quantity using a Nanodrop® ND-1000 spectrophotometer (NanoDrop Technologies, Wilmington Del., USA). First-strand cDNA was synthesized from 500 ng of total RNA using 4 units of Omniscript reverse transcriptase (Qiagen) and 1 μM of oligo-dT (15) nucleotides (Roche). PCR reactions contained 10 μl of Fast SYBR Green PCR Master Mix (Applied Biosystems), 2 μl of cDNA template, and 2.5 μl each of appropriate forward and reverse primers at 625 nM final concentration (Table 1). A no-template mixture control was included in each 96-well plate. Amplification rounds consisted of a 20-s denaturation step at 95° C., followed by 40 two-step cycles of 3 s at 95° C. and 30 s at 60° C. […]

A. tumefaciens VirE1 = assay: Real-time RT PCR of VirE1 transcripts in agroinfiltrated leaves; assay type: in vivo, Agrobacterium tumefaciens; conditions: 1 mM, seven days post-treatment
Description: as §1

[1] = tested on: cathepsin L-like C1A Cys proteases; assay: Protease assay in leaf crude extracts, Z-Phe-Arg-MCA substrate; assay type: in vivo, Nicotiana benthamiana; conditions: three tested doses (0.5, 1, 2 mM), seven days post-treatment, ANOVA P>0.05
Description: (§2) Forty-two day-old N. benthamiana plants grown in greenhouse were used for the experiments. Each plant was sprayed evenly with 50 ml of 0.5 mM, 1 mM or 2 mM MeJA in water containing 0.1% (v/v) Triton X-100 (Sigma-Aldrich, Mississauga ON, Canada), or with 50 ml of 1 mM arachidonic acid (Girard et al., 2007) in the same solvent, and transferred for seven days in a Conviron growth chamber (Conviron, Winnipeg MB, Canada). Plants sprayed with 50 ml of 0.1% (v/v) Triton X-100 in water were used in parallel as negative controls to avoid confounding effects due to experimental conditions. […]
(§3) Whole leaf proteins were extracted from three 1-cm^2 leaf discs in 400 μl of ice-cold 50 mM Tris-HCl, pH 7.5, containing 150 mM NaCl, by disrupting the leaf samples with tungsten carbide beads (Qiagen, Mississauga ON, Canada) in a Mini-Beadbeater apparatus (BioSpec, Bartlesville Okla., USA). […] RuBisCO small subunit was detected using polyclonal IgG raised in rabbit against a synthetic small subunit peptide (Agrisera, Vännäs, Sweden) and alkaline phosphatase-conjugated goat anti-rabbit IgG as secondary antibodies (Sigma-Aldrich). RuBisCO large subunit was detected using polyclonal IgG raised in hen against a synthetic large subunit peptide (Agrisera) and alkaline phosphatase-conjugated goat anti-chicken IgG as secondary antibodies (Sigma-Aldrich). […]

[2] = tested on: trypsin-like S1 Ser proteases; assay: Protease assay in leaf crude extracts, Z-Arg-MCA substrate; assay type: in vivo, Nicotiana benthamiana; conditions: 0.5 and 1 mM doses, seven days post-treatment
Description: as §2, §3

C5-1 antibody = C5-1 antibody immunodetection after non-reducing SDS-PAGE; assay type: in vivo, Nicotiana benthamiana; conditions: agroinfiltrated leaves; treated 24 h before infiltration; 35S-type C5-1 vector
[3] = tested on: C5-1 light and heavy chain mRNA; assay: Real-time RT PCR of C5-1 light and heavy chain transcripts; assay type: in vivo, Nicotiana benthamiana; conditions: 1 mM spray, 24 h before infiltration

For CC/C=C\C[C@H]1C(=O)CC[C@@H]1CC(=O)OC [MeJA, methyl jasmonate], the “VirB1 mRNA transcripts versus control leaves” value (A. tumefaciens VirB1) was “negatively altered; also recorded: significantly lower value”, the “VirE1 transcription versus control leaves” value (A. tumefaciens VirE1) was “no positive effect” and the “cathepsin L-like activity” value [1] was “no impact”. The trypsin-like activity [2] was “minimal or no increase in activity”, the “C5-1 protein band patterns on immunoblot compared to control plants” value (C5-1 antibody) was “increased intensity” and the “mRNA transcript numbers for C5-1 light and heavy chains compared with control leaf extracts” value [3] was “about twofold”.
